From patent US7109220B2, “Amino substituted pyridinyl methanone compounds useful in treating kinase disorders” (Janssen Pharmaceutica N.V., priority 2003, dated 2006)

Experiments:
Assay type in all cases: biochemical
VEGF-R2 kinase = target: T1, VEGF-R2 kinase (Rattus norvegicus, UniProt O08775); experiment: VEGF-R2 Kinase Screening Assay; conditions: soluble rat VEGF-R2 kinase, 10 μM ATP; read-out: VEGF-R IC50
T1 construct: polyhistidine (N)
Procedure: (§1) A kinase reaction mixture was prepared containing 50 mM Tris-HCl pH=8, 10 mM MgCl2, 0.1 mM Na3PO4, 1 mM DTT, 10 μM ATP, 0.025 uM biotinylated peptide substrate and 0.8 μCuries per well^33P-γ-ATP [2000–3000 Ci/mmol]. 70 μL of the kinase reaction mixture was dispensed into the well of a streptavidin coated FlashPlate™ (Cat. #SMP103, NEN, Boston, Mass.). 1 μL of test compound stock in 100% DMSO was added to the wells resulting in a final concentration of 1% DMSO in the mixture with a 100 μL final reaction volume. Soluble rat VEGF-R2 kinase^3 was diluted in 50 mM Tris-HCl pH=8.0, 0.1% BSA at a concentration of 5 ng per microliter and 30 μL (150 ng enzyme per test well) was added to each well to initiate the reaction. The reaction was incubated for one hour at 30° C. At the end of the 1-hour incubation, the reaction was terminated by aspirating the reaction mixture from the plate and washing the wells twice with PBS containing 100 mM EDTA. The PLC1 biotinylated peptide substrate became immobilized on the Flashplate™ and the incoporation of ^33P-γ-ATP was measured by reading the plate on a scintillation counter. Inhibition of the enzymatic activity of the VEGF-R was measured by observing a reduced amount of ^33P-γ-ATP incorporated into the immobilized peptide. ^3VEGF-R2 kinase (Vascular Endothelial Growth Factor Receptor-2): a fusion protein containing a polyhistidine tag at the N-terminus followed by amino acids 786–1343 of the rat VEGF-R2 kinase domain GenBank Accession #U93306); Peptide Substrate (Biotin)KHKKLAEGSAYEEV-Amide
(§2) IC50 values listed as >10 or >100 indicate no observed 50% inhibition at the highest dose tested, nor was an inhibition maximum observed.

CDK1:Cyclin-B = target: T2, CDK1:Cyclin-B (Homo sapiens, UniProt P06493); experiment: CDK1 Screening Assay; conditions: 10 μM ATP, histone-H1 peptide substrate, 1 hour at 30° C.
T2 construct: purchased New England Biolabs, Beverly, Mass; (CDK1); BIOMOL, Plymouth Meeting, Pa; (Cyclin-B) #6020 (CDK1); #SE-195 (Cyclin-B); host or cells: insect cells
T2 sequence (P06493 whole entry): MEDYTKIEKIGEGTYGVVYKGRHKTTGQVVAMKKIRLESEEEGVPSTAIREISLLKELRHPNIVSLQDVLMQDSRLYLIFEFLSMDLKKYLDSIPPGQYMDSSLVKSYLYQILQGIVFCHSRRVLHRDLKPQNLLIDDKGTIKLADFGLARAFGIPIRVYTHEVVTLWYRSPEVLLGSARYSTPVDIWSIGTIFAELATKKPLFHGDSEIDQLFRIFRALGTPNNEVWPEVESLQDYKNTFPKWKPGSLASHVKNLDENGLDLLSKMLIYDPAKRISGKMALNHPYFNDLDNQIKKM
T2 sequence (P14635 whole entry partner): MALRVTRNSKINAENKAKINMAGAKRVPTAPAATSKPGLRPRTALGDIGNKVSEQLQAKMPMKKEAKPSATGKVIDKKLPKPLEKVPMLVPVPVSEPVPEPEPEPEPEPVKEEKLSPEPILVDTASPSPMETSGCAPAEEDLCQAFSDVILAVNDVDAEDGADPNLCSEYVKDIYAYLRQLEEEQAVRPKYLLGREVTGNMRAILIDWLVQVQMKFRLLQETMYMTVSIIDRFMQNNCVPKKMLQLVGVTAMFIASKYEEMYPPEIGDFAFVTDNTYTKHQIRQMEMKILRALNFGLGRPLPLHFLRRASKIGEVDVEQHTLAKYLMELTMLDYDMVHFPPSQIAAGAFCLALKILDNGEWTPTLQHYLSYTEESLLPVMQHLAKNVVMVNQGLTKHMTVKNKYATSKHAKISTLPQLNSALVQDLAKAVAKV
Procedure: (§3) A kinase reaction mixture was prepared containing 50 mM Tris-HCl pH=8, 10 mM MgCl2, 0.1 mM Na3PO4, 1 mM DTT, 10 μM ATP, 0.025 μM biotinylated histone-H1 peptide substrate and 0.2 μCuries per well^33P-γ-ATP [2000–3000 Ci/mmol]. 70 μL of the kinase reaction mixture was dispensed into the well of a streptavidin coated FlashPlate™ (Cat. #SMP103, NEN, Boston, Mass.). Then 1 μL of test compound stock in 100% DMSO was added to the wells resulting in a final concentration of 1% DMSO in the reaction with a 100 μL final reaction volume. CDK1:Cyclin-B protein^1 was diluted in 50 mM Tris-HCl pH=8.0, 0.1% BSA at a concentration of 1 ng per microliter. 30 μL (30 ng enzyme per test well) was added to each well to initiate the reaction, The reaction was incubated for one hour at 30° C. At the end of the 1-hour incubation, the reaction was terminated by aspirating the reaction mixture from the plate and washing the wells twice with PBS containing 100 mM EDTA. The histone-H1 biotinylated peptide substrate became immobilized on the Flashplate™ and the incorporation of ^33P-γ-ATP was measured by reading the plate on a scintillation counter. Inhibition of the enzymatic activity of CDK1 was measured by observing a reduced amount of ^33P-γ-ATP incorporated into the immobilized peptide. ^1CDK1 (cyclin dependent kinase 1) was isolated from insect cells expressing both the human CDK1 catalytic subunit and its positive regulatory subunit Cyclin B (CDK1: New England Biolabs, Beverly, Mass., Cat. #6020; Cyclin-B: BIOMOL, Plymouth Meeting, Pa., Cat. #SE-195); Peptide Substrate (Biotin)KTPKKAKKPKTPKKAKKL-Amide.
as §2

CDK2:Cyclin-E = target: T3, CDK2:Cyclin-E (Homo sapiens, UniProt P24941); experiment: CDK2 Screening Assay; conditions: 10 μM ATP, histone-H1 peptide substrate
T3 construct: purchased Upstate Biotechnology, Lake Placid, N.Y
Procedure: as §3
Using the procedure and materials of Example 1, replacing CDK1:Cyclin-B protein with CDK2:Cyclin-E protein^2, the IC50 data for CDK2 is shown in Table 2. ^2CDK2 (cyclin dependent kinase 2) in complex with cyclin E is commercially available (Upstate Biotechnology, Lake Placid, N.Y.); Peptide Substrate (Biotin)KTPKKAKKPKTPKKAKKL-Amide
IC50 values listed as ˜100 indicate no observed 50% inhibition at the highest dose tested, nor was an inhibition maximum observed.

HER2 kinase = target: T4, HER2 kinase (Homo sapiens, UniProt P04626); experiment: HER-2 Kinase Screening Assay; conditions: HER2 cytoplasmic domain construct, 10 μM ATP
T4 construct: polyhistidine (N); 24 additional non-native amino acids (between the His tag and HER2) (N)
T4 sequence (P04626 676-1255 limits assumed): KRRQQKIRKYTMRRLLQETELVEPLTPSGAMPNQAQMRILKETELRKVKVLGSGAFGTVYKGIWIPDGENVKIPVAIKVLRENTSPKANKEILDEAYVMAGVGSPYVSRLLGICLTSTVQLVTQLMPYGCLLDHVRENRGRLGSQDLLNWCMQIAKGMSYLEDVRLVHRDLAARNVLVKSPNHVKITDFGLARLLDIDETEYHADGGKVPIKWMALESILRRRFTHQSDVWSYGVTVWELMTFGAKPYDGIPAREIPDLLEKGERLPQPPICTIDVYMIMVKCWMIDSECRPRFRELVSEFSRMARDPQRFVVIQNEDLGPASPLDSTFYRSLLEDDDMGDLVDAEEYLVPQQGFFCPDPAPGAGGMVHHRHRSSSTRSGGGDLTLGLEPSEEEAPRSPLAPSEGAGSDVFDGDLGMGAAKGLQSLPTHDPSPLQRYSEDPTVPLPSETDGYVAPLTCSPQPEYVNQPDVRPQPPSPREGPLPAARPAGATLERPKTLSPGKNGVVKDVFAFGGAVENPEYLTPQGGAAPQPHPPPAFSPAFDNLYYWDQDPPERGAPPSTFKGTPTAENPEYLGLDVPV
Procedure: as §1
Using the procedure and materials of Example 3, replacing VEGF-R2 kinase with HER2^4, the IC50 data for HER2 kinase is shown in Table 4. ^4HER2 (Human Epidermal Growth Factor Receptor-2): a construct containing a polyhistidine tag at the N-terminus followed by 24 additional non-native amino acids beginning at amino acid 676 (Accession number M11730) followed by the remainder of the HER2 cytoplasmic domain; Peptide Substrate (Biotin)KHKKLAEGSAYEEV-Amide.
IC50 values listed as >100 indicate no observed 50% inhibition at the highest dose tested, nor was an inhibition maximum observed.

T1 sequence (O08775 786-1343): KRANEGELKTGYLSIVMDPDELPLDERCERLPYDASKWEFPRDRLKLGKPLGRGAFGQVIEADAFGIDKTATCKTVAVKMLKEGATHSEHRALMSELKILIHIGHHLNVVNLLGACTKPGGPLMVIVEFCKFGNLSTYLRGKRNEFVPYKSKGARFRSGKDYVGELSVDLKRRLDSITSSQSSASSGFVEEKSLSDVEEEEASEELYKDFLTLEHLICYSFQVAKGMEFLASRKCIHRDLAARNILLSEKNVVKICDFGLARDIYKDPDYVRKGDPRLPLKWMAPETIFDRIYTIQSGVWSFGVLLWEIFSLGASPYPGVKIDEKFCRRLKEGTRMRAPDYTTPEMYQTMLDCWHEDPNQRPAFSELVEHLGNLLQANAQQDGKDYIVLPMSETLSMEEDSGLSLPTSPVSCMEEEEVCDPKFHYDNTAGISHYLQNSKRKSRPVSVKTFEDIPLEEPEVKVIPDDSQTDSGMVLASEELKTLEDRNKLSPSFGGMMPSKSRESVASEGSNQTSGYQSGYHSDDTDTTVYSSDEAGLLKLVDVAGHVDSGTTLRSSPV

Molecule	IC50 (VEGF-R2 kinase) [µM]	IC50 (CDK1:Cyclin-B) [µM]	IC50 (CDK2:Cyclin-E) [µM]	IC50 (HER2 kinase) [µM]
4-[[6-amino-5-(2,6-difluorobenzoyl)-2-pyridinyl]amino]benzonitrile [Cpd 15]	> 10	0.95		
Nc1ccc(C(=O)c2ccccc2F)c(N)n1 [Cpd 2, (2,6-diamino-3-pyridinyl)(2-fluorophenyl)methanone]	> 10			
Nc1nc(Nc2ccc(S(=O)(=O)N(Cc3ccccc3)Cc3ccccc3)cc2)ccc1C(=O)c1c(F)cccc1F [Cpd 2b, 4-[[6-amino-5-(2,6-difluorobenzoyl)-2-pyridinyl]amino]-N,N-bis(phenylmethyl)benzenesulfonamide]	> 10	> 10		
Nc1ccc(C(=O)c2ccccc2)c(N)n1 [Cpd 3, (2,6-diamino-3-pyridinyl)phenylmethanone]	> 10			
Nc1ccc(C(=O)c2ccco2)c(N)n1 [Cpd 4, (2,6-diamino-3-pyridinyl)-2-furylmethanone]	> 100	> 100		
Nc1ccc(C(=O)c2cccs2)c(N)n1 [Cpd 5, (2,6-diamino-3-pyridinyl)-2-thienylmethanone]	> 100	> 100		
Nc1nc(Nc2ccc(S(N)(=O)=O)cc2)ccc1C(=O)c1c(F)cccc1F [Cpd 6, 4-[[6-amino-5-(2,6-difluorobenzoyl)-2-pyridinyl]amino]benzenesulfonamide]	> 10			
CN(C)S(=O)(=O)c1ccc(Nc2ccc(C(=O)c3c(F)cccc3F)c(N)n2)cc1 [Cpd 7, 4-[[6-amino-5-(2,6-difluorobenzoyl)-2-pyridinyl]amino]-N,N-dimethylbenzenesulfonamide]	> 10	0.26		
Nc1nc(Nc2cccc([N+](=O)[O-])c2)ccc1C(=O)c1c(F)cccc1F [Cpd 10, [2-amino-6-[(3-nitrophenyl)amino]-3-pyridinyl](2,6-difluorophenyl)methanone]	> 100			
Nc1nc(Nc2cccc(Cl)c2)ccc1C(=O)c1c(F)cccc1F [Cpd 11, [2-amino-6-[(3-chlorophenyl)amino]-3-pyridinyl](2,6-difluorophenyl)methanone]	> 100	6.16		
Nc1nc(Nc2ccccc2[N+](=O)[O-])ccc1C(=O)c1c(F)cccc1F [Cpd 12, [2-amino-6-[(2-nitrophenyl)amino]-3-pyridinyl](2,6-difluorophenyl)methanone]	> 10	> 10		
Nc1nc(Nc2ccccc2)ccc1C(=O)c1c(F)cccc1F [Cpd 13, [2-amino-6-(phenylamino)-3-pyridinyl](2,6-difluorophenyl)methanone]	> 100	21.7		
Nc1nc(Nc2ccccn2)ccc1C(=O)c1c(F)cccc1F [Cpd 14, [2-amino-6-(2-pyridinylamino)-3-pyridinyl](2,6-difluorophenyl)methanone]	> 100			
Nc1nc(Nc2ccc(C(=O)O)cc2)ccc1C(=O)c1c(F)cccc1F [Cpd 16, 4-[[6-amino-5-(2,6-difluorobenzoyl)-2-pyridinyl]amino]benzoic acid]	> 10			
Nc1ccc(Nc2ccc(C(=O)c3c(F)cccc3F)c(N)n2)cc1 [Cpd 17, [2-amino-6-[(4-aminophenyl)amino]-3-pyridinyl](2,6-difluorophenyl)methanone]	> 10			
CNc1ccc(Nc2ccc(C(=O)c3c(F)cccc3F)c(N)n2)cc1 [Cpd 18, [2-amino-6-[[4-(methylamino)phenyl]amino]-3-pyridinyl](2,6-difluorophenyl)methanone]	> 10			
Nc1nc(Nc2ccc(NS(=O)(=O)c3ccccc3)cc2)ccc1C(=O)c1c(F)cccc1F [Cpd 19, N-[4-[[6-amino-5-(2,6-difluorobenzoyl)-2-pyridinyl]amino]phenyl]benzenesulfonamide]	> 10			
Nc1ccccc1Nc1ccc(C(=O)c2c(F)cccc2F)c(N)n1 [Cpd 20, [2-amino-6-[(2-aminophenyl)amino]-3-pyridinyl](2,6-difluorophenyl)methanone]	> 100			
CC(=O)Nc1ccccc1Nc1ccc(C(=O)c2c(F)cccc2F)c(N)n1 [Cpd 21, N-[2-[[6-amino-5-(2,6-difluorobenzoyl)-2-pyridinyl]amino]phenyl]acetamide]	> 100	> 100		
Nc1nc(Nc2ccccc2NC(=O)c2ccccc2)ccc1C(=O)c1c(F)cccc1F [Cpd 22, N-[2-[[6-amino-5-(2,6-difluorobenzoyl)-2-pyridinyl]amino]phenyl]benzamide]	> 100	> 100		
Nc1nc(Nc2ccccc2NS(=O)(=O)c2ccccc2)ccc1C(=O)c1c(F)cccc1F [Cpd 23, N-[2-[[6-amino-5-(2,6-difluorobenzoyl)-2-pyridinyl]amino]phenyl]benzenesulfonamide]	> 100	> 100		
CN(C)S(=O)(=O)c1ccc(Nc2ccc(C(=O)c3ccccc3F)c(N)n2)cc1 [Cpd 24, 4-[[6-amino-5-(2-fluorobenzoyl)-2-pyridinyl]amino]-N,N-dimethyl benzenesulfonamide]	> 100			
CN(C)S(=O)(=O)c1ccc(Nc2ccc(C(=O)c3ccccc3)c(N)n2)cc1 [Cpd 25, 4-[(6-amino-5-benzoyl-2-pyridinyl)amino]-N,N-dimethylbenzenesulfonamide]	> 100			
CCN(CC)S(=O)(=O)c1ccc(Nc2ccc(C(=O)c3ccccc3)c(N)n2)cc1 [Cpd 26, 4-[(6-amino-5-benzoyl-2-pyridinyl)amino]-N,N-diethylbenzenesulfonamide]	> 100	> 100		
CN(C)S(=O)(=O)c1ccc(Nc2ccc(C(=O)c3ccco3)c(N)n2)cc1 [Cpd 27, 4-[[6-amino-5-(2-furanylcarbonyl)-2-pyridinyl]amino]-N,N-dimethyl benzenesulfonamide]	> 100			
CCN(CC)S(=O)(=O)c1ccc(Nc2ccc(C(=O)c3ccco3)c(N)n2)cc1 [Cpd 28, 4-[[6-amino-5-(2-furanylcarbonyl)-2-pyridinyl]amino]-N,N-diethylbenzenesulfonamide]	> 100	> 100		
CN(C)S(=O)(=O)c1ccc(Nc2ccc(C(=O)c3cccs3)c(N)n2)cc1 [Cpd 29, 4-[[6-amino-5-(2-thienylcarbonyl)-2-pyridinyl]amino]-N,N-dimethylbenzene sulfonamide]	> 100			
CCCCOc1cc(N)nc(N)c1C(=O)c1c(F)cccc1F [Cpd 31, (2,6-Diamino-4-butoxy-pyridin-3-yl)-(2,6-difluoro-phenyl)-methanone]	40.2	1.16	1.32	1.14
